According to US8227510B2, “Combine use of pterostilbene and quercetin for the production of cancer treatment medicaments” (Universitat de Valencia, priority 2004, dated 2012):
Marks after values point to notes of the source that are not given here.

Experiments:
B16M-F10 cells / HSE [1] = experiment: Adhesion in vitro of B16M-F10 cells to hepatic sinusoidal endothelium; type: cell-based, mice; conditions: for inhibition of adhesion of tumor cells to the endothelium: brief exposure (60 minutes), TNF and IFN present; for Tumor cells Adhesion (%): t-RESV 12 μM, t-PTER 40 μM, QUER 20 μM, 60 minutes exposure, cytokine-treated HSE, no polyphenol = 100%
From the text: (§1) C57BL/6J mice were used (male, 10 to 12 weeks old) from IFFA Credo (L'Arbreole, France). The hepatic sinusoidal endothelium (HSE) was separated and identified as described previously (20). The sinusoidal cells were separated in a gradient of 17.5% metrizamide (w/v). The HSE cultures were established and maintained in pyrogen-free DMEM supplemented as described previously for the B16M-F10 cells. Differential adhesion of the endothelial cells to the collagen matrix and washing permitted complete removal of other types of sinusoidal cells (Kupffer's cells, astrocytes, lymphocytes) from the culture flasks.
(§2) The B16M-F10 cells were labeled with 2′,7′-bis-(2-carboxyethyl)-5-(and -6)-carboxyfluorescein acetoxymethyl ester (BCECF-AM; Moleculer Probes, Eugene, Oreg., USA) (10^6 cells were incubated for 20 minutes at 37° C. in 1 ml of DMEM buffered with HEPES that contained 50 μg of BCECF-AM and 5 μl of DMSO). After washing, the cells that contained BCECF-AM were resuspended in DMEM buffered with HEPES without phenol red at a concentration of 2.5×10^6 cells/ml and were added (0.2 ml/well) to the endothelial cell culture (seeded 24 hours previously), as well as to wells of plastic and controls previously treated with collagen. The plates were then incubated at 37° C. and, 20 minutes later, the wells were washed three times with fresh medium, and then their fluorescence was read using a Fluoroskan Ascent FL (Labsystems, Manchester, UK). The number of adhering tumor cells was quantified with arbitrary fluorescence units based on the percentage relative to the initial number of B16M-F10 cells added to the HSE culture (20). The damage caused to the B16M-F10 cells during their adhesion in vitro to the HSE was evaluated as described previously (21) using tumor cells labeled with calcein-AM (Molecular Probes, Eugene, Oreg., USA). The integrity of the B16M-F10 cells cultivated on their own was evaluated by exclusion of trypan blue and measuring the lactate dehydrogenase released to the extracellular medium (22). The other reagents used in the tumoral cytotoxicity experiments were from Sigma.
Recombinant murine TNF- (2×10^7 U/mg of protein) and recombinant murine interferon-(IFN-; 10^5 U/mg of protein) were obtained from Sigma. The concentrated solutions (5×10^5 U TNF-/ml and 25×10^4 U IFN-/ml) were diluted in sterile saline (0.9% NaCl), adjusted to pH 7.0, and stored at 4° C.
In addition to the effect of PTER+QUER on tumor growth, we investigated the antimetastatic potential. The interaction of B16M-F10 and HSE cells was studied in vitro first. On the basis of the results obtained previously, we chose brief periods of exposure (60 minutes) of the metastatic cells to the polyphenols (at the concentrations measured in the plasma after their i.v. administration). Since the interaction of the metastatic cells with the endothelial cells and Kupffer's cells activates the local release of proinflammatory cytokines [promoters of adhesion of cancer cells to the endothelium and of invasion (14, 31)], we investigated the effect of the polyphenols on the adhesion of B16M-F10 cells to the HSE in the presence of TNF- and IFN-—this combination of cytokines induces maximum activation of the HSE (see ref. 20 and the references therein) (Table 3). […] A similar effect (˜60% inhibition of adhesion) was found in the presence of t-PTER (Table 3). […]

B16M-F10 cells / HSE [2] = experiment: HSE-induced cytotoxicity on adhering B16M-F10 cells in vitro; type: cell-based, mice; conditions: for Tumor cells Cytotoxicity (% of adhering): t-RESV 12 μM, t-PTER 40 μM, QUER 20 μM, after 6 hours of incubation, none 15 ± 2
From the text: as §1, §2
Recombinant murine TNF- (2×10^7 U/mg of protein) and recombinant murine interferon-(IFN-; 10^5 U/mg of protein) were obtained from Sigma. […]
HSE cells, previously cultured for 24 hours [±polyphenol(s), added 12 hours from seeding and removed by washing 60 minutes later], were cocultured with B16M-F10 cells previously cultured for 72 hours [±polyphenol(s), as in FIG. 2]. […] In the tests of endothelium-induced cytotoxicity on the B16M-F10 cells, the tumor damage (expressed as the percentage of tumor cells that lost viability during the incubation period of 4-6 hours, see the methodology) was determined after 6 hours of incubation. […]

| Structure (SMILES) | inhibition of adhesion of tumor cells to the endothelium (B16M-F10 cells / HSE [1]) | Tumor cells Adhesion (%) (B16M-F10 cells / HSE [1]) | increase of the death of B16M-F10 cells induced by the HSE (B16M-F10 cells / HSE [2]; brief exposure (60 minutes)) | Tumor cells Cytotoxicity (% of adhering) (B16M-F10 cells / HSE [2]) |
| --- | --- | --- | --- | --- |
| O=c1c(O)c(-c2ccc(O)c(O)c2)oc2cc(O)cc(O)c12 [QUER, quercetin] | without affecting the level of adhesion | 98 ± 11% | ~48% | 52 ± 6** % of adhering |
| COc1cc(/C=C/c2ccc(O)cc2)cc(OC)c1 [PTER, pterostilbene] | ~60% | 40 ± 6 % | – | 19 ± 3* % of adhering |
| Oc1ccc(C=Cc2cc(O)cc(O)c2)cc1 [RESV, resveratrol, reference compound] | – | 53 ± 7 % | – | 12 ± 3 % of adhering |
